{
  "source": "patent US20170305857A1",
  "about": "“N-ACYLPIPERIDINE ETHER TROPOMYOSIN-RELATED KINASE INHIBITORS” (Pfizer Limited, priority 2014, published 2017)",
  "data": [
    {"target": "T1, recombinant His-tagged cytoplasmic domains of TRKA receptor (NTRK1, PV3144, aa 441-796) (Homo sapiens, UniProt P04629)", "T1 construct": "aa 441-796; His; purchased Invitrogen PV3144", "T1 sequence (P04629 441-796)": "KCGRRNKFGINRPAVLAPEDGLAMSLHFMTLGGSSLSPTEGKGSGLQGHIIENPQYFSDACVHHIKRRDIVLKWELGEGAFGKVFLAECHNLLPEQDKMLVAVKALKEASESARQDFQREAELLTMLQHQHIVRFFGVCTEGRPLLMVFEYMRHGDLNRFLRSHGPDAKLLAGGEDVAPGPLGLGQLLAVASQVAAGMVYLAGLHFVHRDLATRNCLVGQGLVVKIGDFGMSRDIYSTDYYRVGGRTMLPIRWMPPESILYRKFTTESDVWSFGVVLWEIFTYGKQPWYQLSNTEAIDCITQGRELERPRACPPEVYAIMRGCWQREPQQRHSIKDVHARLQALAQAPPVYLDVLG", "assay": "Isolated TRK enzyme assay (HTRF KinEASE-TK, PV3144 TrkA enzyme assay)", "assay_type": "biochemical", "conditions": "4 nM enzyme, 40 uM ATP, 35 min, arithmetic mean where more than one reading", "experimental": "Isolated TRK Enzyme assays use the HTRF KinEASE-TK kit (Cisbio Cat #62TK0PEJ) with recombinant His-tagged cytoplasmic domains of TRKA receptor sourced from Invitrogen (see table below). This activity-assay measures the phosphorylation of tyrosine residues within a substrate from the HTRF kit which has been validated by Cisbio for a variety of tyrosine kinases including the TRK receptors.\n0.5 mM stock solutions of test compounds are prepared and serially diluted in 100% DMSO. […] Greiner low volume black plates containing 0.2 ul of serially diluted compound, standard and HPE/ZPE are created using the Bravo nanolitre dispenser.\n1× enzyme buffer is prepared from 5× Enzymatic Buffer from the Cisbio KinEASE TK kit using MilliQ water. The buffer is then supplemented with 10 mM MgCl and 2 mM DTT (both from Sigma).\nFollowing this preactivation step, 5 ul/well of enzyme+ATP mix is added using a Multidrop Micro to the assay plate, spotted with 0.2 ul 100% DMSO compound. This is left for 20 mins at room temperature before adding 5 ul of 2 uM TK-substrate-Biotin (from the Cisbio kit) diluted in 1× enzyme buffer (1 uM FAC) using the Multidrop Micro. The reaction is incubated at room temperature for the optimized assay reaction time (see table).\nAfter the Detection Reagent addition, plates are covered and incubated at room temperature for 60 minutes. […] Test compound data are expressed as percentage inhibition defined by HPE and ZPE values for each plate. Percentage inhibition in the presence of test compound is plotted against compound concentration on a log scale to determine an IC50 from the resultant sigmoid curve.\nWhere more than one reading was taken, the arithmetic mean is presented.", "units": {"IC50": "nM"}, "values": [
      {"smiles": "NC(=O)c1cc(-c2cnn(C3CS(=O)(=O)C3)c2)cnc1O[C@H]1CCN(C(=O)Cc2ccc(OC(F)(F)F)cc2)C[C@H]1F", "note": "[Example 22, 5-[1-(1,1-dioxidothietan-3-yl)-1H-pyrazol-4-yl]-2-{[(3R,4S)-3-fluoro-1-{[4-(trifluoromethoxy)phenyl]acetyl}piperidin-4-yl]oxy}pyridine-3-carboxamide]", "IC50": 1.2},
      {"smiles": "NC(=O)c1cc(-c2cnn(C3CS(=O)(=O)C3)c2)cnc1O[C@@H]1CCN(C(=O)Cc2ccc(OC(F)(F)F)cc2)C[C@@H]1F", "note": "[Example 23, 5-[1-(1,1-dioxidothietan-3-yl)-1H-pyrazol-4-yl]-2-{[(3S,4R)-3-fluoro-1-{[4-(trifluoromethoxy)phenyl]acetyl}piperidin-4-yl]oxy}pyridine-3-carboxamide]", "IC50": 1.4},
      {"smiles": "CS(=O)(=O)Cn1cc(-c2cnc(O[C@@H]3CCN(C(=O)Cc4ccc(OC(F)(F)F)c(F)c4)C[C@@H]3F)c(C(N)=O)c2)cn1", "note": "[Example 24, 2-{[(3S,4R)-3-fluoro-1-{[3-fluoro-4-(trifluoromethoxy)phenyl]acetyl}pipertdin-4-yl]oxy}-5-{1-[(methylsulfonyl)methyl]-1H-pyrazol-4-yl}pyridine-3-carboxamide]", "IC50": 2.9},
      {"smiles": "CS(=O)(=O)Cn1cc(-c2cnc(O[C@H]3CCN(C(=O)Cc4ccc(OC(F)(F)F)cc4)C[C@@H]3F)c(C(N)=O)c2)cn1", "note": "[Example 25, 2-{[(3S,4S)-3-fluoro-1-{[4-(trifluoromethoxy)phenyl]acetyl}piperidin-4-yl]oxy}-5-{1-[(methylsulfonyl)methyl]-1H-pyrazol-4-yl}pyridine-3-carboxamide]", "IC50": 3.7},
      {"smiles": "CS(=O)(=O)Cn1cc(-c2cnc(O[C@H]3CCN(C(=O)Cc4ccc(OC(F)(F)F)c(F)c4)C[C@@H]3F)c(C(N)=O)c2)cn1", "note": "[Example 26, 2-{[(3S,4S)-3-fluoro-1-{[3-fluoro-4-(trifluoromethoxy)phenyl]acetyl}piperidin-4-yl]oxy}-5-{1-[(methylsulfonyl)methyl]-1H-pyrazol-4-yl}pyridine-3-carboxamide]", "IC50": 8.9},
      {"smiles": "Cn1cnc(-c2cnc(O[C@H]3CCN(C(=O)Cc4ccc(OC5CC5)cc4)C[C@@H]3F)c(C(N)=O)c2)c1", "note": "[Example 27, 2-{[(3S,4S)-1-{[4-(cyclopropyloxy)phenyl]acetyl}-3-fluoropiperidin-4-yl]oxy}-5-(1-methyl-1H-imidazol-4-yl)pyridine-3-carboxamide]", "IC50": 2.1},
      {"smiles": "CS(=O)(=O)Cn1cc(-c2cnc(O[C@@H]3CCN(C(=O)Cc4ccc(OC5CC5)cc4)C[C@@H]3F)c(C(N)=O)c2)cn1", "note": "[Example 28, 2-{[(3S,4R)-1-{[4-(cyclopropyloxy)phenyl]acetyl}-3-fluoropiperidin-4-yl]oxy}-5-{1-[(methylsulfonyl)methyl]-1H-pyrazol-4-yl}pyridine-3-carboxamide]", "IC50": 2.3},
      {"smiles": "Cn1cnc(-c2cnc(O[C@@H]3CCN(C(=O)Cc4ccc(OC5CC5)cn4)C[C@@H]3F)c(C(N)=O)c2)c1", "note": "[Example 29, 2-{[(3S,4R)-1-{[5-(cyclopropyloxy)pyridin-2-yl]acetyl}-3-fluoropiperidin-4-yl]oxy}-5-(1-methyl-1H-imidazol-4-yl)pyridine-3-carboxamide]", "IC50": 4.3},
      {"smiles": "CS(=O)(=O)Cn1cc(-c2cnc(O[C@H]3CCN(C(=O)Cc4ccc(OC5CC5)cc4)C[C@@H]3F)c(C(N)=O)c2)cn1", "note": "[Example 30, 2-{[(3S,4S)-1-{[4-(cyclopropyloxy)phenyl]acetyl}-3-fluoropiperidin-4-yl]oxy}-5-{1-[(methylsulfonyl)methyl]-1H-pyrazol-4-yl}pyridine-3-carboxamide]", "IC50": 4.8},
      {"smiles": "Cn1cnc(-c2cnc(O[C@H]3CCN(C(=O)Cc4ccc(OC5CC5)cn4)C[C@@H]3F)c(C(N)=O)c2)c1", "note": "[Example 31, 2-{[(3S,4S)-1-{[5-(cyclopropyloxy)pyridin-2-yl]acetyl}-3-fluoropiperidin-4-yl]oxy}-5-(1-methyl-1H-imidazol-4-yl)pyridine-3-carboxamide]", "IC50": 9},
      {"smiles": "CC(C)(O)Cn1cc(-c2cnc(O[C@@H]3CCN(C(=O)Cc4ccc(OC5CC5)cn4)C[C@@H]3F)c(C(N)=O)c2)cn1", "note": "[Example 32, 2-{[(3S,4R)-1-{[5-(cyclopropyloxy)pyridin-2-yl]acetyl}-3-fluoropiperidin-4-yl]oxy}-5-[1-(2-hydroxy-2-methylpropyl)-1H-pyrazol-4-yl]pyridine-3-carboxamide]", "IC50": 7.2},
      {"smiles": "CC(C)(O)Cn1cc(-c2cnc(O[C@H]3CCN(C(=O)Cc4ccc(OC5CC5)cn4)C[C@H]3F)c(C(N)=O)c2)cn1", "note": "[Example 33, 2-{[(3R,4S)-1-{[5-(cyclopropyloxy)pyridin-2-yl]acetyl}-3-fluoropiperidin-4-yl]oxy}-5-[1-(2-hydroxy-2-methylpropyl)-1H-pyrazol-4-yl]pyridine-3-carboxamide]", "IC50": 4.9},
      {"smiles": "CC(C)(O)Cn1cc(-c2ccc(O[C@H]3CCN(C(=O)Cc4ccc(OC5CC5)cn4)C[C@@H]3F)c(C(N)=O)c2)cn1", "note": "[Example 34, 2-{[(3S,4S)-1-{[5-(cyclopropyloxy)pyridin-2-yl]acetyl}-3-fluoropiperidin-4-yl]oxy}-5-[1-(2-hydroxy-2-methylpropyl)-1H-pyrazol-4-yl]benzamide]", "IC50": 7.7},
      {"smiles": "CS(=O)(=O)Cn1cc(-c2cc(C(N)=O)c(O[C@@H]3CCN(C(=O)Cc4ccc(OC5CC5)cc4)C[C@@H]3F)cn2)cn1", "note": "[Example 35, 5-{[(3S,4R)-1-{[4-(cyclopropyloxy)phenyl]acetyl}-3-fluoropiperidin-4-yl]oxy}-2-{1-[(methylsulfonyl)methyl]-1H-pyrazol-4-yl}pyridine-4-carboxamide]", "IC50": 7.7},
      {"smiles": "CS(=O)(=O)Cn1cc(-c2cc(C(N)=O)c(O[C@@H]3CCN(C(=O)Cc4ccc(OC(F)(F)F)cc4)C[C@@H]3F)cn2)cn1", "note": "[Example 36, 5-{[(3S,4R)-3-fluoro-1-{[4-(trifluoromethoxy)phenyl]acetyl}piperidin-4-yl]oxy}-2-{1-[(methylsulfonyl)methyl]-1H-pyrazol-4-yl}pyridine-4-carboxamide]", "IC50": 3.4},
      {"smiles": "CS(=O)(=O)Cn1cc(-c2cc(C(N)=O)c(O[C@@H]3CCN(C(=O)Cc4ccc(OC(F)(F)F)c(F)c4)C[C@@H]3F)cn2)cn1", "note": "[Example 37, 5-{[(3S,4R)-3-fluoro-1-{[3-fluoro-4-(trifluoromethoxy)phenyl]acetyl}piperidin-4-yl]oxy}-2-{1-[(methylsulfonyl)methyl]-1H-pyrazol-4-yl}pyridine-4-carboxamide]", "IC50": 7.4},
      {"smiles": "Cn1cnc(-c2ccc(O[C@H]3CCN(C(=O)Cc4ccc(OC5CC5)cc4)C[C@@H]3F)c(C(N)=O)c2)c1", "note": "[Example 42, 2-{[(3S,4S)-1-{[4-(cyclopropyloxy)phenyl]acetyl}-3-fluoropiperidin-4-yl]oxy}-5-(1-methyl-1H-imidazol-4-yl)benzamide]", "IC50": 3.1},
      {"smiles": "Cn1cnc(-c2ccc(O[C@H]3[C@@H]4CC[C@H]3CN(C(=O)Cc3ccc(OC(F)(F)F)cc3)C4)c(C(N)=O)c2)c1", "note": "[Example 46, 5-(1-methyl-1H-imidazol-4-yl)-2-(((1R,5S,8r)-3-(2-(4-(trifluoromethoxy)phenyl)acetyl)-3-azabicyclo[3.2.1]octan-8-yl)oxy)benzamide]", "IC50": 2.2},
      {"smiles": "Cn1cnc(-c2ccc(O[C@@H]3[C@@H]4CC[C@H]3CN(C(=O)Cc3ccc(OC(F)(F)F)cc3)C4)c(C(N)=O)c2)c1", "note": "[Example 47, 5-(1-methyl-1H-imidazol-4-yl)-2-(((1R,5S,8s)-3-(2-(4-(trifluoromethoxy)phenyl)acetyl)-3-azabicyclo[3.2.1]octan-8-yl)oxy)benzamide]", "IC50": 5.2},
      {"smiles": "Cn1cnc(-c2ccc(O[C@@H]3C[C@H]4CC[C@@H](C3)N4C(=O)Cc3ccc(OC(F)(F)F)cc3)c(C(N)=O)c2)c1", "note": "[Example 48, 5-(1-methyl-1H-imidazol-4-yl)-2-(((1R,3s,5S)-8-(2-(4-(trifluoromethoxy)phenyl)acetyl)-8-azabicyclo[3.2.1]octan-3-yl)oxy)benzamide]", "IC50": 3.6},
      {"smiles": "Cn1cnc(-c2ccc(O[C@@H]3CCN(C(=O)Cc4ccc(OC(F)(F)F)cc4)C[C@H]3F)c(C(N)=O)c2)c1", "note": "[Example 53, 2-(((3R,4R)-3-fluoro-1-(2-(4-(trifluoromethoxy)phenyl)acetyl)piperidin-4-yl)oxy)-5-(1-methyl-1H-imidazol-4-yl)benzamide]", "IC50": 1.2},
      {"smiles": "NC(=O)c1cc(N2CCCC2)ncc1OC1CCN(C(=O)Cc2ccc(OC(F)(F)F)cc2)CC1", "note": "[Example 54, 2-(pyrrolidin-1-yl)-5-((1-(2-(4-(trifluoromethoxy)phenyl)acetyl)piperidin-4-yl)oxy)isonicotinamide]", "IC50": 42.4},
      {"smiles": "CS(=O)(=O)Cn1cc(-c2cnc(O[C@@H]3CCN(C(=O)Cc4ccc(OC(F)(F)F)cc4)C[C@@H]3F)c(C(N)=O)c2)cn1", "note": "[Example 55, 2-{[(3S,4R)-3-fluoro-1-{[4-(trifluoromethoxy)phenyl]acetyl}piperidin-4-yl]oxy}-5-{1-[(methylsulfonyl)methyl]-1H-pyrazol-4-yl}pyridine-3-carboxamide]", "IC50": 1.8},
      {"smiles": "NC(=O)c1cc(-c2c[nH]c(C3(O)COC3)n2)ccc1OC1CCN(C(=O)Cc2ccc(OC(F)(F)F)cc2)CC1", "note": "[Example 56, 5-[2-(3-hydroxyoxetan-3-yl)-1H-imidazol-5-yl]-2-[(1-{[4-(trifluoromethoxy)phenyl]acetyl}piperidin-4-yl)oxy]benzamide]", "IC50": 5.1}
    ]}
  ]
}
